37 molecules from US7297700B2, “Bicycloheteroaryl compounds as P2X7 modulators and uses thereof” (Renovis, Inc., priority 2005, dated 2007) can be followed below.

The first test concerns IL-1β release from THP-1 cells. In words: IL-1β Release Assay (Alternate Method), THP-1 cells. The note with it: at 0.3 μM; THP-1 cells. It is filed as cell-based, human. Here is the method:
THP-1 cells (ATCC Cat #285-IF-100) are plated in 96 well plates at a concentration of 200,000 cells per well and allowed to differentiate in RPMI-1640 media (ATCC Cat #30-2001) containing 10% FBS, 100 IU/mL penicillin, 100 ug/mL streptomycin, 100 ng/mL LPS and 100 ng/mL IFN-γ for 16 hours. Following differentiation, the cells are treated for an additional 2 hours in RPMI-1640 media containing 100 IU/mL penicillin, 100 ug/mL streptomycin and fresh LPS at 100 ng/mL. The cells are then pretreated for 30 minutes with the compound of interest at the appropriate concentration in RPMI media containing 100 IU/mL penicillin, 100 ug/mL streptomycin. Following the pretreatment 2′, 3′-O-(4-benzoylbenzoyl)-adenosine 5′-triphosphate (Sigma Aldrich Cat#B6396) is added to a final concentration of 250 uM and the cells incubated for an additional 45 minutes. 30 uL of cell supernatant is then collected and IL-1β levels determined via ELISA (R&D systems Cat. #HSLB50) according to manufacturer's recommendations using the Tecan Safire plate reader. Background adjusted IL-1β levels of drug treated and non-treated cells are used to calculate the percent inhibition.
As for `O=C(CC12CC3CC(CC(C3)C1)C2)Nc1ncnc2c1CCN(C(=O)CCc1ccccc1)C2` [Compound 248], the IL-1β % inhibition entry is recorded as “+ (compound exhibited 0-25% inhibition at 0.3 μM)”. With `COc1ccc(CC(=O)N2CCc3c(ncnc3NC(=O)CC34CC5CC(CC(C5)C3)C4)C2)cc1OC` [Compound 254], the IL-1β % inhibition entry was “+ (compound exhibited 0-25% inhibition at 0.3 μM)”. The same measure, in the same setting: the value for `Cc1nc[nH]c1CN1CCc2c(ncnc2NC(=O)CC23CC4CC(CC(C4)C2)C3)C1` [Compound 81] was “+++ (compound exhibited 50-75% inhibition at 0.3 μM)”.

For `COc1ccc(C(=O)N2CCc3c(ncnc3NC(=O)CC34CC5CC(CC(C5)C3)C4)C2)c(OC)c1` [Compound 275], the IL-1β % inhibition entry is on record as “+++ (compound exhibited 50-75% inhibition at 0.3 μM)”. Still for that read-out and setting: under `Cc1noc(C)c1S(=O)(=O)N1CCc2c(ncnc2NC(=O)CC23CC4CC(CC(C4)C2)C3)C1` [Compound 169] stands “++ (compound exhibited 25-50% inhibition at 0.3 μM)”. Still for that read-out and setting: under `COc1cc(CN2CCc3c(ncnc3NC(=O)CC34CC5CC(CC(C5)C3)C4)C2)ccc1O` [Compound 117] stands “+ (compound exhibited 0-25% inhibition at 0.3 μM)”. The same measure, in the same setting: the value for `O=C(CC12CC3CC(CC(C3)C1)C2)Nc1ncnc2c1CCN(C(=O)c1cccnc1Oc1ccccc1)C2` [Compound 274] was “+ (compound exhibited 0-25% inhibition at 0.3 μM)”; that for `O=C(CC12CC3CC(CC(C3)C1)C2)Nc1ncnc2c1CCN(Cc1ccc(Cl)c(F)c1)C2` [Compound 329] was “+++ (compound exhibited 50-75% inhibition at 0.3 μM)”.

As to `O=C(CC12CC3CC(CC(C3)C1)C2)Nc1ncnc2c1CCN(Cc1cccc(C(F)(F)F)c1F)C2` [Compound 131], the IL-1β % inhibition entry is “+ (compound exhibited 0-25% inhibition at 0.3 μM)”. Still for that read-out and setting: the value for `O=C(CC12CC3CC(CC(C3)C1)C2)Nc1ncnc2c1CCN(Cc1ccccc1OCCO)C2` [Compound 100] was “++ (compound exhibited 25-50% inhibition at 0.3 μM)”. On to `Cc1noc(C)c1C(=O)N1CCc2c(ncnc2NC(=O)CC23CC4CC(CC(C4)C2)C3)C1` [Compound 297], for which the IL-1β % inhibition result is “+ (compound exhibited 0-25% inhibition at 0.3 μM)”. Still for that read-out and setting: the value for `CC(C)(C(=O)Nc1ncnc2c1CCN(C(=O)c1cccc(C(F)(F)F)c1)C2)C12CC3CC(CC(C3)C1)C2` [Compound 359] was “+ (compound exhibited 0-25% inhibition at 0.3 μM)”; that for `O=C(CC12CC3CC(CC(C3)C1)C2)Nc1ncnc2c1CCN(Cc1ccc(C(F)(F)F)cc1C(F)(F)F)C2` [Compound 327] was “+ (compound exhibited 0-25% inhibition at 0.3 μM)”; that for `O=C(CC12CC3CC(CC(C3)C1)C2)Nc1ncnc2c1CCN(C(=O)c1ccccc1Cl)C2` [Compound 294] was “+++ (compound exhibited 50-75% inhibition at 0.3 μM)”.

In the case of `COc1ccc(CN2CCc3c(ncnc3NC(=O)CC34CC5CC(CC(C5)C3)C4)C2)cc1Cl` [Compound 324], the IL-1β % inhibition result is listed as “+ (compound exhibited 0-25% inhibition at 0.3 μM)”. With `O=C(CC12CC3CC(CC(C3)C1)C2)Nc1ncnc2c1CCN(CCc1ccccc1)C2` [Compound 14], the IL-1β % inhibition result is recorded as “+ (compound exhibited 0-25% inhibition at 0.3 μM)”. On the same count and under the same terms, the value for `CC(C)(C(=O)Nc1ncnc2c1CCN(C(=O)c1cccc(Cl)c1Cl)C2)C12CC3CC(CC(C3)C1)C2` [Compound 364] was “+ (compound exhibited 0-25% inhibition at 0.3 μM)”; that for `NC(=O)COc1ccc(CN2CCc3c(ncnc3NC(=O)CC34CC5CC(CC(C5)C3)C4)C2)cc1` [Compound 91] was “+ (compound exhibited 0-25% inhibition at 0.3 μM)”; that for `O=C(CC12CC3CC(CC(C3)C1)C2)Nc1ncnc2c1CCN(S(=O)(=O)c1ccc(F)cc1F)C2` [Compound 209] was “++++ (compound exhibited 75% or greater inhibition at 0.3 μM)”.

On to `O=C(CC12CC3CC(CC(C3)C1)C2)Nc1ncnc2c1CCN(C(=O)c1ccccc1F)C2` [Compound 280], for which the IL-1β % inhibition result is given as “+++ (compound exhibited 50-75% inhibition at 0.3 μM)”.

Take `CCCS(=O)(=O)N1CCc2c(ncnc2NC(=O)CC23CC4CC(CC(C4)C2)C3)C1` [Compound 147]: the IL-1β % inhibition entry is listed as “++++ (compound exhibited 75% or greater inhibition at 0.3 μM)”. The same measure, in the same setting: the value for `CCN1CCc2c(ncnc2NC(=O)CC23CC4CC(CC(C4)C2)C3)C1` [Compound 8] was “+ (compound exhibited 0-25% inhibition at 0.3 μM)”; that for `O=C(CC12CC3CC(CC(C3)C1)C2)Nc1ncnc2c1CCN(Cc1ccc(F)c(C(F)(F)F)c1)C2` [Compound 106] was “+ (compound exhibited 0-25% inhibition at 0.3 μM)”.

The same test, now with this note: at 0.3 μM; THP-1 cells, BzATP-stimulated.
Regarding `COc1ccc(C(=O)N2CCc3c(ncnc3NC(=O)C34CC5CC(CC(C5)C3)C4)C2)cc1F` [Compound 475], the IL-1β % inhibition entry is recorded as “++ (compound exhibited 25-50% inhibition at 0.3 μM)”.

With `O=C(Nc1ncnc2c1CCN(S(=O)(=O)c1cccc(C(F)(F)F)c1)C2)C12CC3CC(CC(C3)C1)C2` [Compound 492], the IL-1β % inhibition result is “+++ (compound exhibited 50-75% inhibition at 0.3 μM)”. For `COc1ccc(CN2CCc3c(ncnc3NC(=O)C34CC5CC(CC(C5)C3)C4)C2)cc1O` [Compound 593], the IL-1β % inhibition result is given as “+ (compound exhibited 0-25% inhibition at 0.3 μM)”. Same read-out and setting: under `O=C(c1cccc(Cl)c1)N1CCc2c(ncnc2NC(=O)C23CC4CC(CC(C4)C2)C3)C1` [Compound 425] stands “+ (compound exhibited 0-25% inhibition at 0.3 μM)”; under `COc1ccc(Oc2ccc(S(=O)(=O)N3CCc4c(ncnc4NC(=O)C45CC6CC(CC(C6)C4)C5)C3)cc2)cc1` [Compound 509], “+++ (compound exhibited 50-75% inhibition at 0.3 μM)”. For the molecule `O=C(c1ccc(Cl)c(Cl)c1)N1CCc2c(ncnc2NC(=O)C23CC4CC(CC(C4)C2)C3)C1` [Compound 417], the IL-1β % inhibition entry is on record as “+ (compound exhibited 0-25% inhibition at 0.3 μM)”. Same read-out and setting: under `Cc1cc(C)cc(S(=O)(=O)N2CCc3c(ncnc3NC(=O)C34CC5CC(CC(C5)C3)C4)C2)c1` [Compound 550] stands “+ (compound exhibited 0-25% inhibition at 0.3 μM)”.

In the case of `CCOc1ccc(CN2CCc3c(ncnc3NC(=O)C34CC5CC(CC(C5)C3)C4)C2)cc1` [Compound 630], the IL-1β % inhibition result was “++++ (compound exhibited 75% or greater inhibition at 0.3 μM)”. The same measure, in the same setting: the value for `O=C(Nc1ncnc2c1CCN(S(=O)(=O)c1ccccc1F)C2)C12CC3CC(CC(C3)C1)C2` [Compound 501] was “++ (compound exhibited 25-50% inhibition at 0.3 μM)”. The same measure, in the same setting: the value for `O=C(Nc1ncnc2c1CCN(S(=O)(=O)Cc1cc(Cl)cc(Cl)c1)C2)C12CC3CC(CC(C3)C1)C2` [Compound 519] was “+++ (compound exhibited 50-75% inhibition at 0.3 μM)”; that for `O=C(Nc1ncnc2c1CCN(Cc1cccc(OC(F)(F)F)c1)C2)C12CC3CC(CC(C3)C1)C2` [Compound 632] was “++ (compound exhibited 25-50% inhibition at 0.3 μM)”.

For `O=C(Nc1ncnc2c1CCN(S(=O)(=O)c1ccccc1Cl)C2)C12CC3CC(CC(C3)C1)C2` [Compound 525], the IL-1β % inhibition entry is reported as “+ (compound exhibited 0-25% inhibition at 0.3 μM)”. Still for that read-out and setting: the value for `O=C(Nc1ncnc2c1CCN(Cc1ccc(Cl)nc1)C2)C12CC3CC(CC(C3)C1)C2` [Compound 634] was “+ (compound exhibited 0-25% inhibition at 0.3 μM)”; that for `O=C(c1ccc(Cl)nc1)N1CCc2c(ncnc2NC(=O)C23CC4CC(CC(C4)C2)C3)C1` [Compound 453] was “+ (compound exhibited 0-25% inhibition at 0.3 μM)”.
